Experimental findings from ChEMBL document CHEMBL5226297, “Small-Molecule Drug Discovery in Triple Negative Breast Cancer: Current Situation and Future Directions” (J Med Chem, 2021) are described below.

The test system of assay [1] is MDA-MB-231. Put plainly: Anticancer activity against human MDA-MB-231 cells assessed as cell growth inhibition incubated for 72 hrs by CCK-8 assay. The class given is functional, cell-based. Conditions: MDA-MB-231, 72 h.
Assay [2] relates to BT-549. Nature of the assay: Anticancer activity against human BT-549 cells assessed as cell growth inhibition incubated for 72 hrs by CCK-8 assay. The class given is functional, cell-based. The following applies: BT-549, 72 h.
The test system of assay [3] is Hs-578T. Nature of the assay: Anticancer activity against human Hs-578T cells assessed as cell growth inhibition incubated for 72 hrs by CCK-8 assay. It counts as functional, cell-based.
The test system of assay [4] is MDA-MB-231. Nature of the assay: Anticancer activity against human MDA-MB-231 cells assessed as cell growth inhibition by MTS assay. The class given is functional, cell-based.
In assay [5] the test system is MDA-MB-436. Put plainly: Anticancer activity against human MDA-MB-436 cells assessed as cell growth inhibition incubated for 24 hrs by MTT assay. Conditions: MDA-MB-436, 24 h. The class given is functional, cell-based.
Assay [6] concerns the target Plasminogen activator inhibitor 1 (Homo sapiens) (UniProt P05121).
Assay [7] is described as follows: Inhibition of ERK (unknown origin). More on the design: species or system Homo sapiens.
The subject of assay [8] is Hs-578T. Nature of the assay: Anticancer activity against human Hs-578T cells assessed as cell growth inhibition by MTS assay. It counts as functional, cell-based.
The subject of assay [9] is BT-549. Put plainly: Anticancer activity against human BT-549 cells assessed as cell growth inhibition by MTS assay. It counts as functional, cell-based.
The test system of assay [10] is MDA-MB-231. Put plainly: cells. The following applies: Homo sapiens, MDA-MB-231, 48 h.
For assay [11], the system named is MDA-MB-231. Nature of the assay: Anticancer activity against human MDA-MB-231 cells assessed as cell growth inhibition incubated for 24 hrs by MTT assay. It counts as functional, cell-based. Conditions: MDA-MB-231, 24 h.
Assay [12] deals with Eukaryotic elongation factor 2 kinase (Homo sapiens, UniProt O00418). Nature of the assay: Inhibition of eEF2K (unknown origin) by western blot analysis.
Assay [13] concerns the target Interleukin-8 (Homo sapiens, UniProt P10145). Nature of the assay: Inhibition of human IL-8 by ELISA assay.
The target of assay [14] is Protein SET (Homo sapiens) (UniProt Q01105). Put plainly: Inhibition of SET (unknown origin).
Assay [15] can be described thus: Inhibition of cIAP1 (unknown origin). More on the design: species or system Homo sapiens.
The subject of assay [16] is MDA-MB-231. Put plainly: Anticancer activity against human MDA-MB-231 cells assessed as cell growth inhibition by crystal violet staining based haemocytometer analysis. The class given is functional.
Assay [17] has as its system MDA-MB-436. Nature of the assay: Anticancer activity against human MDA-MB-436 cells assessed as cell growth inhibition by crystal violet staining based haemocytometer analysis. The class given is functional.
Assay [18] relates to HCC38. Nature of the assay: Anticancer activity against human HCC38 cells assessed as cell growth inhibition by crystal violet staining based haemocytometer analysis. The class given is functional.
For assay [19], the system named is HCC1937. Put plainly: Anticancer activity against human HCC1937 cells assessed as cell growth inhibition incubated for 72 hrs by MTT assay. It counts as functional, cell-based. The following applies: HCC1937, 72 h.
Assay [20] has as its system HCC70. Nature of the assay: Anticancer activity against human HCC70 cells assessed as cell growth inhibition incubated for 72 hrs by MTT assay. The following applies: HCC70, 72 h. It counts as functional, cell-based.
The test system of assay [21] is Hs-578T. Put plainly: Anticancer activity against human Hs-578T cells assessed as cell growth inhibition incubated for 72 hrs by MTT assay. The class given is functional, cell-based.

Chain of Eukaryotic elongation factor 2 kinase (O00418 whole entry): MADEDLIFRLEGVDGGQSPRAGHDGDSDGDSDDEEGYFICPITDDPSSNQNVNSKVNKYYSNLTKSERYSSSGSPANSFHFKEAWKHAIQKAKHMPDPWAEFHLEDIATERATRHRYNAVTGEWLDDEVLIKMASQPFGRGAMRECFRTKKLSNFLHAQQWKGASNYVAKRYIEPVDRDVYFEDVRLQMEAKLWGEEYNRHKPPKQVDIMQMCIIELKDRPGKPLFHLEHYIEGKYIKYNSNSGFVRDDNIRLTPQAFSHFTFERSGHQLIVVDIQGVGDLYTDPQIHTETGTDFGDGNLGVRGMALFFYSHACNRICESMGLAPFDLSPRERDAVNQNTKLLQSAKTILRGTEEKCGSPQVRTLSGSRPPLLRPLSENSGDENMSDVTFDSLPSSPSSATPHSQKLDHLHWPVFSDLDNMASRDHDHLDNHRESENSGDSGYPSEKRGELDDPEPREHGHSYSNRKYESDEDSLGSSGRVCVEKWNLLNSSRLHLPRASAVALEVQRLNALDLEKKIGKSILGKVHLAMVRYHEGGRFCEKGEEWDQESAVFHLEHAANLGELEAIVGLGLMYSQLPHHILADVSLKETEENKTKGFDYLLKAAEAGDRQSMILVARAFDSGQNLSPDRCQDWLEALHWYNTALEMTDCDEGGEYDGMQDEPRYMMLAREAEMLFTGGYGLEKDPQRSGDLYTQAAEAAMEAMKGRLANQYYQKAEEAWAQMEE
Chain of Interleukin-8 (P10145 whole entry): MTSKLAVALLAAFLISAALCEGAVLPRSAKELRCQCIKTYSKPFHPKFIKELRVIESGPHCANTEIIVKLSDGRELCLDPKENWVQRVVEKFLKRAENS
Chain of Protein SET (Homo sapiens) (Q01105 whole entry): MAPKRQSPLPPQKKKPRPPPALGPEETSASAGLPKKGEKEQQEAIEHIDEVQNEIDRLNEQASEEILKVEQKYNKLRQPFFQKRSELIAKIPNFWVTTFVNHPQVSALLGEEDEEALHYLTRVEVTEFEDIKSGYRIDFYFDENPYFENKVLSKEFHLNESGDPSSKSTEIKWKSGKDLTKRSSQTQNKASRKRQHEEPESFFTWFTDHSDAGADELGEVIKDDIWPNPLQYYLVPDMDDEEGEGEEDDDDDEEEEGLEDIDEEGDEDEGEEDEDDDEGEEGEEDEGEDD
Chain of Plasminogen activator inhibitor 1 (Homo sapiens) (P05121 whole entry): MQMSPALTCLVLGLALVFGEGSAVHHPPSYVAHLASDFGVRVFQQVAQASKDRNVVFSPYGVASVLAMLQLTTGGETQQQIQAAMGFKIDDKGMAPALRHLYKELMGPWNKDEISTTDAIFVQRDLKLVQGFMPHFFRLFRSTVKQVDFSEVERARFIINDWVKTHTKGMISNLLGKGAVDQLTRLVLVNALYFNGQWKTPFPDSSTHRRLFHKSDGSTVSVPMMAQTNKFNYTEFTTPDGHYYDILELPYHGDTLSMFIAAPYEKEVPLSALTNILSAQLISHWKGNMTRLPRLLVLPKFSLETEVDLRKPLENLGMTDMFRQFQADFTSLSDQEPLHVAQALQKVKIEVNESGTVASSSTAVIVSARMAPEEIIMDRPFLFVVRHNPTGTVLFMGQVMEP

As to `CO[C@H]1/C=C\C=C(/C)C(=O)NC2=CC(=O)C(NCCN(C)C)=C(C[C@@H](C)C[C@H](OC)[C@H](O)[C@@H](C)/C=C(\C)[C@@H]1OC(N)=O)C2=O` [ALVESPIMYCIN], the IC50 in assay [1] came out at 45.7 µM; in assay [2] it was 17.1 µM; in assay [3], 0.0084 µM.

Take `CC[C@@H](C(=O)[C@@H](C)[C@@H](O)[C@H](C)[C@@H]1O[C@@H]([C@@H](CC)C(=O)O)CC[C@@H]1C)[C@H]1O[C@]2(C=C[C@@H](O)[C@]3(CC[C@@](C)([C@H]4CC[C@](O)(CC)[C@H](C)O4)O3)O2)[C@H](C)C[C@@H]1C` [SALINOMYCIN]: the IC50 in assay [4] came to 0.5 µM.

On to `Cc1nc(NCc2ccccc2F)ncc1C(=O)NCc1cccs1`, for which the IC50 in assay [5] was 7.89 µM.

As to `O=C(O)C(=O)c1cn(Cc2ccccc2)c2ccc(-c3ccc(OC(F)(F)F)cc3)cc12`, in assay [6], the IC turned out to be 5 µM.

For `Clc1cc(Cl)cc(C(Cn2ccnc2)OCc2nc3ccccc3s2)c1` (stereo not given), 5 µM corresponded to half-maximal inhibition in assay [7] (IC50).

With `COc1cc2nccc(C(OC(C)=O)c3ccc4c(c3OC)C=CC(C)(C)O4)c2cc1OC` (stereo not given), the IC50 was 5 µM in assay [8], 5 µM in assay [4] and 15 µM in assay [9].

`CN(C)CC/C=C1\c2ccccc2COc2ccc(CC(=O)NN)cc21`: the IC50 in assay [5] came to 5 µM.

As for `C=C(C)[C@@H]1CCC(C)=C[C@H]1c1c(O)cc(CCCCC)cc1O` [CANNABIDIOL], half-maximal inhibition in assay [10] (IC50) was put at 6 µM.

`COC(=O)Nc1nc2cc(C(=O)c3ccc(F)cc3)ccc2[nH]1` [FLUBENDAZOLE]: the IC50 in assay [8] was 0.125 µM; in assay [4], 0.25 µM; in assay [11], 0.5 µM; in [9] it was 0.125 µM.

Turning to `CC1=CC(=O)C(C(C)C)=CC1=O` [THYMOQUINONE], half-maximal inhibition in [12] (IC50) required 8.2 µM.

For `COc1ccc2cc3[n+](cc2c1OC)CCc1cc2c(cc1-3)OCO2` [BERBERINE], in [13], inhibition was half-maximal at 50 µM (IC50).

In the case of `C#Cc1cccc(Nc2nc(Nc3ccc(Oc4ccccc4)cc3)nc3cc(OC)c(OC)cc23)c1`, the IC in [14] amounted to 3 µM.

As to `CN[C@@H](C)C(=O)N[C@H](C(=O)N1CCC[C@H]1c1nc(C(=O)c2ccc(F)cc2)cs1)C1CCCCC1` [LCL-161], the midpoint of inhibition in assay [15], the IC50, lay at 0.0004 µM.

Consider `C=C1C(=O)O[C@@H]2C[C@@]3(C)CCC[C@H](C)C3=C[C@H]12` [HELENINE], for which the IC50 in [11] stood at 15 µM.

With `CC(=O)c1c(C)c2cnc(Nc3ccc(N4CCNCC4)cn3)nc2n(C2CCCC2)c1=O` [PALBOCICLIB], the results for the EC50 in assay [16], in assay [17] and in assay [18] were 0.3 µM, 5 µM and 1.4 µM, respectively.

With `C=C1[C@H]2[C@@H](/C(=C/C)C(=O)[C@H]2CC(=O)C(C)CC)[C@H](C(C)C)N[C@H]1CC(=O)/C=C(\C)CC` (stereo not given in full), the concentration for half-maximal inhibition (IC50) in assay [11] was 5 µM.

For the molecule `C[C@@H]1COC(Nc2ccc3ncnc(Nc4ccc(OCc5nccs5)c(Cl)c4)c3c2)=N1` [VARLITINIB], the IC50 in assay [19] stood at 20 µM; in [20] it was 10 µM; in assay [21], 10 µM.

As for `N[C@@H](C(=O)N[C@@H]1C(=O)N2C(C(=O)O)=C(CSc3c[nH]nn3)CS[C@H]12)c1ccc(O)cc1` [CEFATRIZINE], the IC50 in assay [5] was 30 µM.

In the case of `O=C(Nc1ccc([N+](=O)[O-])cc1Cl)c1cc(Cl)ccc1O` [NICLOSAMIDE], in assay [11], the IC50 was found to be 0.625 µM.
